From ChEMBL document CHEMBL5465560, “Selectivity Literature for EUbOPEN Chemogenomic Library” (2024)

Assays:
[1] = target: Serine/threonine-protein kinase 32A (Homo sapiens) (UniProt Q8WU08); assay: Selectivity interaction (KinomeScan (DiscoverX)) EUB0000229b STK32A; details: at 10 µM
[2] = target: Serine/threonine-protein kinase 38 (Homo sapiens) (UniProt Q15208); assay: Selectivity interaction (KinomeScan (DiscoverX)) EUB0001079a STK38; details: at 1 µM
[3] = target: T1, Serine/threonine-protein kinase 36 (Homo sapiens) (UniProt Q9NRP7); details: at 10 µM
T1 sequence (whole entry): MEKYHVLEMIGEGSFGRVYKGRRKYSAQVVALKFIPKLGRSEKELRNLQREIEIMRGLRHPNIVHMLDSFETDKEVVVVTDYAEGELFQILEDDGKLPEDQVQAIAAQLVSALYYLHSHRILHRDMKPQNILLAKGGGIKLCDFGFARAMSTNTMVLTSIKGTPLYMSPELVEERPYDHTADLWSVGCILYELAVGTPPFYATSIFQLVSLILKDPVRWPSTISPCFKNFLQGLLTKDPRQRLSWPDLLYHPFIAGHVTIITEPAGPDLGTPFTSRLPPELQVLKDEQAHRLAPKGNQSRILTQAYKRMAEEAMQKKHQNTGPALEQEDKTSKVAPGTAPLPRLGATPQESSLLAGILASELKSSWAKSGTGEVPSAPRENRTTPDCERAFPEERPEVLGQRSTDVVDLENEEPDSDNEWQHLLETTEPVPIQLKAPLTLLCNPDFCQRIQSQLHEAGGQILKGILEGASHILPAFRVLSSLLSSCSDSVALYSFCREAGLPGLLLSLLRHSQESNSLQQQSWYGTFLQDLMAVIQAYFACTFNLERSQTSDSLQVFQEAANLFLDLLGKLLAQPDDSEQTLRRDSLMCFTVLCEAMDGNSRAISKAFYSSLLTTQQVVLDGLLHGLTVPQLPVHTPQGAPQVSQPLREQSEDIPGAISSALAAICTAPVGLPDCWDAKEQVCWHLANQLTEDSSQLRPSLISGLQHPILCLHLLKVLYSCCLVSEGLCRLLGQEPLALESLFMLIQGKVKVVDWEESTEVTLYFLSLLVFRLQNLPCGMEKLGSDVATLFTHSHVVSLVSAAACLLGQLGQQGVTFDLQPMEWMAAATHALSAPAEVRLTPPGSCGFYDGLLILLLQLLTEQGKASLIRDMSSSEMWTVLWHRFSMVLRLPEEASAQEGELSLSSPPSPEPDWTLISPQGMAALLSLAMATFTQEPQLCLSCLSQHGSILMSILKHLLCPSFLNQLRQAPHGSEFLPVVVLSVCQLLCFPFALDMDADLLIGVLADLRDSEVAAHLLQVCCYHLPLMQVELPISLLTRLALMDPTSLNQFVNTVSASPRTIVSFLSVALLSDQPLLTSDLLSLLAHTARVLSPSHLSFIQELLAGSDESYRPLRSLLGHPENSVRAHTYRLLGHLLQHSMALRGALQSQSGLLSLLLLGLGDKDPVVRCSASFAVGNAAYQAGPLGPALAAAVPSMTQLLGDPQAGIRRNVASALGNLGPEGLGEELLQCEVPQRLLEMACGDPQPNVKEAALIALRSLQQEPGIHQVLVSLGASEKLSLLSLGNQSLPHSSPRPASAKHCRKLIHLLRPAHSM

[4] = target: T2, Serine/threonine-protein kinase BRSK1 (Homo sapiens) (UniProt Q8TDC3); assay: Selectivity interaction (KinomeScan (DiscoverX)) EUB0000655a BRSK1; details: at 10 µM
T2 sequence (whole entry): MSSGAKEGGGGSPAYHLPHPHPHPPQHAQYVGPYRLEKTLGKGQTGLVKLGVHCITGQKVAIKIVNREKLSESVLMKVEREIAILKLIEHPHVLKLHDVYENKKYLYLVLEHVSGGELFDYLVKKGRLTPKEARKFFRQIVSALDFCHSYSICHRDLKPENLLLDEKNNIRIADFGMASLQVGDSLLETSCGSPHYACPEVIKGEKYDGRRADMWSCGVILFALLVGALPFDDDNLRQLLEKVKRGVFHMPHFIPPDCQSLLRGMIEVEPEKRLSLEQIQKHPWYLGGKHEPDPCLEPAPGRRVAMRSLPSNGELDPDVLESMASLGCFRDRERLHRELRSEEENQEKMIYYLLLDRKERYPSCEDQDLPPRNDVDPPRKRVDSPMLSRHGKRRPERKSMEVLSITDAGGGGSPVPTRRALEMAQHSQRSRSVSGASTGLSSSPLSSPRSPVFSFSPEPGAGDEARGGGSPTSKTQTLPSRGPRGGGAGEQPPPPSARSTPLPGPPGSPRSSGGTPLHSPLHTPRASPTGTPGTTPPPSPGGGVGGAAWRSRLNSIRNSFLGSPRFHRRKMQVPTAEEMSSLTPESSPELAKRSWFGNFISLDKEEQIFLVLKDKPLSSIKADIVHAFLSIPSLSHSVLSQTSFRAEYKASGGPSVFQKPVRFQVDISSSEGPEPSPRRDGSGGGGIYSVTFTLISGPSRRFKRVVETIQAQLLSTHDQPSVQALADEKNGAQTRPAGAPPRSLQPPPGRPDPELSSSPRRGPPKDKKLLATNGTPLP

Chain of Serine/threonine-protein kinase 38 (Homo sapiens) (Q15208 2-465 limits assumed): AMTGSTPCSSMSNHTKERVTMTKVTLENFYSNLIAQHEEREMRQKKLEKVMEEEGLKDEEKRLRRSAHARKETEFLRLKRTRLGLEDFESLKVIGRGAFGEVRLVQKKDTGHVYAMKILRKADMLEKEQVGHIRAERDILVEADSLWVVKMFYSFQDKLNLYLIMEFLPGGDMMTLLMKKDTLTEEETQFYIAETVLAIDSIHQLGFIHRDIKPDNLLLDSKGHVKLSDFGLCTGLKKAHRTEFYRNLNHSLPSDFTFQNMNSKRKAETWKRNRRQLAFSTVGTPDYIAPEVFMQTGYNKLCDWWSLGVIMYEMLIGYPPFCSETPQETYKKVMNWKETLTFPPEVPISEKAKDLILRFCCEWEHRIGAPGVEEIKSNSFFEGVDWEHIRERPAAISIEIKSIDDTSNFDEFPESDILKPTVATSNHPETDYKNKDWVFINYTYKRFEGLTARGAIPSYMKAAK
Chain of Serine/threonine-protein kinase 32A (Homo sapiens) (Q8WU08 whole entry): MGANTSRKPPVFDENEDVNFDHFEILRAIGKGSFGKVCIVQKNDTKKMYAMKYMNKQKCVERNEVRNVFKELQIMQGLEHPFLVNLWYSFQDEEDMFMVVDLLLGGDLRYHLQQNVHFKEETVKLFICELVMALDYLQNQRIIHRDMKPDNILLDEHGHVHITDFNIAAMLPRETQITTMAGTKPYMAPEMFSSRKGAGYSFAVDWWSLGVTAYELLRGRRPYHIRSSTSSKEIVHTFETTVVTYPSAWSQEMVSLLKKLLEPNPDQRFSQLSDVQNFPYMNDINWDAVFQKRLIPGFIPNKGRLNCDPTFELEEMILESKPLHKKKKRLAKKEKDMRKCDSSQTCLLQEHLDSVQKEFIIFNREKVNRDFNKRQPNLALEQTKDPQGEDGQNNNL

Question: For `COc1cc(N(C)c2ccnc3ccc(C(F)(F)F)cc23)cc(OC)c1OC`, which % binding [1] is on record?
Answer: 82%

Question: With `Nc1cnc(N2CCc3cc(S(=O)(=O)Nc4c(F)cc(Cl)cc4F)cc(N4CCCC4=O)c32)nc1` [TP-020n] as the compound, how does the % of control [2] read?
Answer: 99%

Question: How did the % of control [3] turn out when `Cc1cc([C@@H](C)Nc2ccccc2C(=O)O)c2nc(N3CCOCC3)cc(=O)n2c1` [AZD-6482] was run?
Answer: 100%

Question: With `CN(C)CCOc1ccc(-c2nc(-c3ccncc3)c(-c3ccc4c(c3)CC/C4=N\O)[nH]2)cc1` as the compound, how does the % of control [4] read?
Answer: 76%
